Measured values taken from ChEMBL document CHEMBL1156829 (Proc Natl Acad Sci U S A, 2008).

What was measured:
[1] = test system: Plasmodium falciparum; experiment: NOVARTIS: Inhibition of Plasmodium falciparum 3D7 (drug-susceptible) proliferation in erythrocyte-based infection assay; format: functional, organism-based; conditions: Plasmodium falciparum, 3D7
[2] = test system: Plasmodium falciparum; experiment: NOVARTIS: Inhibition of Plasmodium falciparum W2 (drug-resistant) proliferation in erythrocyte-based infection assay; format: functional, organism-based; conditions: Plasmodium falciparum, W2; read-out: EC50
[3] = NOVARTIS: Cytotoxicity against human hepatocellular carcinoma cell line (Huh7); format: toxicity, cell-based, Huh-7; conditions: Huh7 cells (hepatocellular carcinoma cell line)

Row | Structure (SMILES) | EC50 [1] | EC50 [2] | CC50 [3]
1 | CCN1CCC(N2CCC(n3c(Cc4ccccc4OC)nc4cc(F)ccc43)CC2)CC1 | 0.413 µM | 0.35 µM | 37.7 µM
2 | CN(C)c1ccc(-c2cc(-c3ccccc3)[s+]c(-c3ccccc3)c2)cc1 | 0.318 µM | 0.0737 µM | 1.69 µM
3 | Fc1ccc(-n2cc(-c3ccccc3)[n+]3c2SCC3)cc1 | > 0.965 µM | > 0.911 µM | > 10 µM
4 | CCOC(=O)c1c(NC(=O)CCC(=O)OC)sc2c1CC(C)(C)SC2 | > 0.65 µM | > 1.11 µM | > 10 µM
5 | Cc1cccn2c(NCc3ccccc3)c(-c3ccccc3OC(=O)C(C)Cl)nc12 (stereo unspecified) | 0.764 µM | 0.925 µM | > 100 µM
6 | CC(C)(C)c1ccc(-c2nc(C34CC5CC(CC(C5)C3)C4)cs2)cc1 | > 12.5 µM | 1.65 µM | > 100 µM
7 | O=C(Nc1ccc(NC2=NCCN2)cc1)c1ccc(C(=O)Nc2ccc(NC3=NCCN3)cc2)cc1 | 0.166 µM | 0.0256 µM | > 10 µM
8 | CCN1C(=Cc2ccc3c4ccoc4ccc3[n+]2CC)C=Cc2c1ccc1occc21 | 0.534 µM | 0.764 µM | > 10 µM
9 | CCOc1cccc2c1N(C(=O)c1cccc([N+](=O)[O-])c1)C(C)(C)C(=S)C2=C1SC(C(=O)OC)=C(C(=O)OC)S1 | > 1.25 µM | 0.444 µM | > 10 µM
10 | COc1cc(OC)c(NC(=O)c2ccc(N3CC4CC(C3)c3cccc(=O)n3C4)c([N+](=O)[O-])c2)cc1Cl (stereo unspecified) | 9.69 µM | 1.93 µM | > 100 µM
11 | CCCN1CCC(N2C[C@@H](NCc3ccc(OCc4ccccc4)cc3)C[C@H]2C(=O)NCCc2ccc3c(c2)OCO3)CC1 | 1.07 µM | 0.701 µM | 3.56 µM
12 | Cc1ccc(OCC(=O)Nc2cccc(-c3nc4ncccc4o3)c2)cc1C | 1.9 µM | 2.05 µM | > 100 µM
13 | CCOC(=O)c1nnn(-c2nonc2N)c1-c1ccc(Cl)cc1 | 0.397 µM | 0.16 µM | > 100 µM
14 | Clc1ccc(-c2nc3cc(Cl)cnc3[nH]2)cc1 | 0.565 µM | > 1.25 µM | > 8.52 µM
15 | Cn1c2ccccc2c2nnc(NN=Cc3ccccn3)nc21 | 0.866 µM | 0.793 µM | > 10 µM
16 | Cc1cc(Nc2ccc(Cl)cc2)n2nnnc2n1 | > 1.64 µM | 1.75 µM | > 10 µM
17 | COc1ccccc1CN1CCc2nc(-c3cnccn3)sc2C1 | 9.23 µM | 4.44 µM | 23 µM
18 | CCc1ccc2c(c1)C(c1ccncc1)=NNC(c1ccncc1)=N2 | 0.887 µM | > 1.3 µM | > 10 µM
19 | COc1ccc(C2CC(=O)C3=C(C2)NC(C)=C(C(=O)OC2CCCC2)C3c2ccccc2C)cc1OC (stereo unspecified) | 0.0334 µM | 0.0131 µM | > 100 µM
20 | CCOC(=O)C1=C(C)N(c2ccc(OCC)cc2)C(=O)C1=Cc1ccc(C(C)C)cc1 | 3.5 µM | > 12.5 µM | > 100 µM
21 | Cc1ccc(N2C(=O)C3C(C2=O)C2(c4ccccc4)C(=O)C3(c3ccccc3)C(c3ccccc3)=C2c2ccccc2)cc1Br (stereo unspecified) | 1.44 µM | 1.41 µM | > 10 µM
22 | N#C/C(=C\c1cc2ccccc2nc1Cl)c1nc(-c2ccc(Cl)c(Cl)c2)cs1 | > 1.25 µM | > 1.01 µM | > 10 µM
23 | Cc1ccc(C2=NC(C(F)(F)F)(C(F)(F)F)N=C3C=CC(Cl)=CN32)cc1 | > 1.21 µM | > 1.3 µM | > 10 µM

Row | Structure (SMILES) | EC50 [1] | EC50 [2] | CC50 [3]
24 | CCOc1ccc2[nH]c3c(NCCCN(C)C)ncnc3c2c1 | 0.203 µM | 0.778 µM | 26.6 µM
25 | O=S(=O)(NCCCCNc1ccnc2cc(Cl)ccc12)c1ccc2ccccc2c1 | 0.268 µM | 0.00495 µM | 6.41 µM
26 | CCOc1ccc(CN2CCN(CC(O)COc3ccc(OCC(O)CN4CCN(Cc5ccc(OCC)cc5)CC4)cc3)CC2)cc1 (stereo unspecified) | 1.37 µM | 2.68 µM | 73.7 µM
27 | O=C1CC(=O)Nc2cc(S(=O)(=O)NC3CCCCCCC3)ccc2N1 | > 1.25 µM | > 0.796 µM | > 10 µM
28 | COc1cc(CNc2cc(OCCOc3ccc(Cl)cc3)cc(C(=O)NC3CCN(Cc4ccccc4)CC3)c2)ccc1OCc1ccccc1 | 0.902 µM | > 1.25 µM | > 12.1 µM
29 | CCN(c1ccc(F)cc1)S(=O)(=O)c1ccc2[nH]cc(C(=O)NCCC(C)C)c(=O)c2c1 | > 1.25 µM | > 1.15 µM | > 10 µM
30 | CC1CCCCN1CCCNc1ncc(C(=O)NCC2CCCO2)c(NCCc2ccccc2)n1 (stereo unspecified) | 0.918 µM | 0.0267 µM | > 10 µM
31 | Cc1ccc(C(=O)NNc2nc(Nc3ccccc3)nc(N3CCCC3)n2)cc1 | > 12.5 µM | 1.99 µM | > 100 µM
32 | O=C1CC(c2ccccc2)Oc2ccc(F)cc21 (stereo unspecified) | > 1.25 µM | > 0.734 µM | > 10 µM
33 | CCC(c1nc2ccccc2c(=O)n1-c1ccc(Cl)cc1)N(Cc1ccccc1)C(=O)Nc1c(C(C)C)cccc1C(C)C (stereo unspecified) | > 1.42 µM | 0.0267 µM | > 10 µM
34 | Cc1cccc(OCC(=O)NCCNC2=NS(=O)(=O)c3ccccc32)c1 | > 1.12 µM | 1.68 µM | > 10 µM
35 | CN(CCCNc1nc2ccccc2c2nc(-c3cccnc3)nn12)Cc1ccccc1 | > 0.771 µM | > 0.996 µM | > 10 µM
36 | O=C(NCSC1=NCCS1)c1ccccc1 | > 12.5 µM | > 6.03 µM | > 100 µM
37 | CCC(c1nc2ccccc2c(=O)n1-c1ccc(F)cc1)N(CCc1ccccc1)C(=O)COc1ccccc1 (stereo unspecified) | 1.03 µM | 1.15 µM | > 10 µM
38 | O=C(O)[C@@H]1C[C@H](CP(=O)(O)O)CCN1 [SELFOTEL] | 1.32 µM | > 1.21 µM | > 5.06 µM
39 | COC(=O)C1=C(C)N(C)C(C)=C(C(=O)OC)C1c1ccc(C)cc1 | > 0.811 µM | > 0.567 µM | > 9.49 µM
40 | CCOC(=O)C1=C(C)NC2=C(C(=O)C(C(=O)OCC)C(c3ccc(OC)cc3)C2)C1c1ccc([N+](=O)[O-])cc1 (stereo unspecified) | 0.685 µM | 0.134 µM | > 100 µM
41 | CCCOc1ccc(NC(=O)c2ccco2)cc1 | 1.15 µM | 0.406 µM | 16.9 µM
42 | O=C1NN=C(CC(=O)N2CC[C@@H](c3ccccc3)[C@H](O)C2)C2C=CC=CC12 (stereo partly specified) | > 0.853 µM | > 1.59 µM | > 10 µM
43 | O=S(=O)(/C=C/c1ccccc1)NCCCCNc1ccnc2cc(Cl)ccc12 | 0.405 µM | 0.397 µM | 1.48 µM
44 | O=[N+]([O-])c1ccc(C=NNc2nc3ccccc3[nH]2)cc1 | 0.818 µM | 0.742 µM | > 100 µM
45 | CC(C)c1cccc(C(C)C)c1NC(=O)N(Cc1ccccc1)C(C)c1nc2ccccc2c(=O)n1-c1ccc(Br)cc1 (stereo unspecified) | 1.32 µM | 0.028 µM | > 10 µM
46 | CCC(=O)NNc1cc(N2CCCC2)nc(N2CCCC2)n1 | 0.79 µM | 0.76 µM | > 100 µM

Row | Structure (SMILES) | EC50 [1] | EC50 [2] | CC50 [3]
47 | CC(C)(C)c1ccc(C(=O)N2CCCn3cccc3C2c2ccc(C(C)(C)C)cc2)cc1 (stereo unspecified) | 1.56 µM | 1.29 µM | > 100 µM
48 | CN(Cc1ccsc1)C(=O)CCc1nnc(CCCc2ccccc2)o1 | > 1.25 µM | 0.27 µM | > 10 µM
49 | CCOc1cc2c(cc1OCC)C(c1cc(OC)c(O)cc1Cl)NCC2 (stereo unspecified) | 0.362 µM | 0.0958 µM | 74.2 µM
50 | CCCCNC(=O)c1nn(-c2ccc(OC)cc2)c(=O)c2ccccc12 | 2.25 µM | 0.68 µM | > 100 µM
51 | COc1cc(/C=C(\C#N)c2nc3ccccc3[nH]2)ccc1OCc1ccccc1Cl | > 1.25 µM | 1.67 µM | > 10 µM
52 | O=C(COc1ccccc1)NC(c1ccco1)c1cc(Cl)c2cccnc2c1O (stereo unspecified) | 1.49 µM | 0.589 µM | > 100 µM
53 | O=C(Nc1ccc(C(F)(F)F)cc1)c1ccc(NCCCN2CCCCCC2)c([N+](=O)[O-])c1 | 0.12 µM | 0.328 µM | 21.2 µM
54 | COc1ccc(C2c3cccn3-c3ccccc3N2C(=O)CN(C(=O)Nc2ccc(C(F)(F)F)cc2)C2CC2)cc1 (stereo unspecified) | 7.51 µM | 6.2 µM | > 100 µM
55 | CC(=O)Nc1ccc(-c2nc(-c3ccc(Oc4ccc(-c5[nH]c(-c6ccc(NC(C)=O)cc6)nc5-c5ccccc5)cc4)cc3)c(-c3ccccc3)[nH]2)cc1 | 6.95 µM | 5.59 µM | 50.1 µM
56 | Cc1cc(Nc2ccc(C)c(C)c2)n2nc(C)nc2n1 | 0.183 µM | 0.378 µM | > 100 µM
57 | C=C(C)[C@@]12O[C@@H]1[C@@]1(C)C(=CC2=O)CC[C@@H](O)[C@@H]1C | 0.787 µM | 0.586 µM | > 10 µM
58 | CCCCCCCCC(=O)N1CCN(C(CC)c2nc3ccccc3c(=O)n2C)CC1 (stereo unspecified) | 0.492 µM | 0.5 µM | > 10 µM
59 | COc1nc(C)nc(NC(=O)NC(=O)c2c(OC)ccc([N+](=O)[O-])c2OC)n1 | > 0.266 µM | > 0.164 µM | > 10 µM
60 | COc1ccc(C=Cc2ccc3ccccc3[n+]2C)cc1OC | 0.441 µM | 0.138 µM | > 100 µM
61 | Cc1nc2ccc(-c3ccc4nc(C)[nH]c4c3)cc2[nH]1 | 2.09 µM | 0.844 µM | 8.63 µM
62 | COc1ccc(OC)c(-c2ccc(O)c(CNCCCN(C)C)c2)c1 | 1.26 µM | 0.67 µM | 21.4 µM
63 | CC(Nc1cc(C)ccn1)=C(C#N)C#N | 0.549 µM | 0.795 µM | > 100 µM
64 | O=S(=O)(Oc1ccc2ccccc2c1Cc1c(OS(=O)(=O)c2ccccc2)ccc2ccccc12)c1ccccc1 | > 12.5 µM | 1.84 µM | > 100 µM
65 | Cc1cc(C)c2c(c1)-c1c(ssc1=S)C(C)(C)N2C(=O)COc1nc2ccccc2s1 | 0.125 µM | 0.169 µM | > 100 µM
66 | COc1ccc2[nH]c(=O)c(CN(C(=S)Nc3ccccc3OC)C3CCCC3)cc2c1 | 0.995 µM | 0.824 µM | > 100 µM
67 | Oc1ncnc2c1C(c1ccccc1)c1c(O)ncnc1O2 | > 0.882 µM | > 0.462 µM | > 8.83 µM
